Results reported in PubChem BioAssay AID1918935 (Molecular Pharmacology Branch, DTP, NCI, 2023).
Where “and” joins values, the source holds several entries; their conditions need not be identical. Equal values may be shown once.

Tested on: 324938-238-R-J1-PDC complex spheroid viability
Assay: Anticancer human tumor 324938-238-R-J1-PDC patient-derived bladder carcinoma cell line growth inhibition
Settings: for viability, T/C: stronger effect = lower value
Text: Multicellular complex tumor spheroid response to LSD1 Inhibitor Iadademstat in combination with a variety of drugs and investigational agents in selected tumor cell lines
The current study was undertaken to assess response to LSD1 inhibitors in combination with standard-of-care drugs and investigational agents in solid tumor complex spheroid models as well as in the K-562 leukemia. Complex spheroids include a stromal component modeled by human endothelial cells (HUVEC) and fibroblasts modeled by human mesenchymal stem cells (MSCs). The concentration ranges selected for each drug and investigational agent were based upon clinically achievable concentrations if the clinical Cmax of the agent was known.
Compounds. The drugs and investigational agents used in this study are listed on Table 1. All of the agents used, including staurosporine (NSC755774) and gemcitabine (NSC613327), were obtained from the Developmental Therapeutics Program, NCI. FDA-approved anticancer drugs are available from the NCI at http://dtp.nci.nih.gov/branches/dscb/oncology_drugset_explanation.html. Drugs and investigational agents were >95% pure by proton nuclear magnetic resonance (NMR) and liquid chromatography/mass spectrometry (LC/MS). Stock solutions were prepared at 400x in DMSO, stored at -70 degrees C, and diluted in fresh medium prior to their use. The final concentration of DMSO in cell culture wells never exceeded 0.25% (v/v). The FDA-approved anticancer drug set is available from the Developmental Therapeutics Program at https://dtp.cancer.gov/organization/dscb/obtaining/available_plates.htm. All drugs and investigational agents were tested over a range starting from a high concentration at or near the clinical Cmax and decreasing in half-log increments. If the clinical Cmax for an agent had not been determined, the highest concentration tested was 10 microM.
Cell Lines. The patient-derived cancer cell (PDC) lines: 292921-168-R-J2-PDC, K24384-001-R-PDC, and 521955-158-R2-J5-PDC pancreatic carcinomas, 556581-035-R-J1 ovarian carcinoma, 324938-238-R-J1-PDC, 855422-203-R-J1-PDC and 883617-216-R-J1-PDC urothelial bladder carcinomas, 743489-274-T-PDC renal cell carcinoma, 138582-R-J1 Merkel cell tumor, K60290-347-R-J1 and K57222-313-R-J1-PDC glioblastomas, 653999-131-R-J2-PDC, LG0703-F948-PDC, and 349418-098-R-PDC non-small cell lung carcinomas, 885512-296-R-J2-PDC, 171881-019-R-J1-PDC breast carcinomas and 186277-243-T-J2-PDC and 233499-124-R-J2-PDC colon carcinomas were obtained from the NCI Patient-Derived Models Repository (PDMR, https://pdmr.cancer.gov). The established cell lines NCI/ADR-RES (RRID:CVCL_14520 and OVCAR-5 (RRID:CVCL_1628) ovarian carcinomas, 786-O (RRID:CVCL_1051) and A498 (RRID:CVCL_A498) renal cell carcinoma, NCI-H211 (ATCC, cat. CRL-5824; RRID:CVCL_1529), NCI-H196 (ATCC, cat. CRL-5823, RRID:CVCL_1509), SW 1271 (ATCC, cat. CRL-2177, RRID:CVCL_1716) and NCI-H1876 (ATCC, cat. CRL-5902, RRID:CVCL_1503) small cell lung carcinomas, MDA-MB-231 (RRID:CVCL_0062) and MDA-MB-468 (RRID:CVCL_0419)breast carcinomas (10-12). Pooled donor human umbilical vein endothelial cells (HUVEC, Lonza, cat. CC-2519) and human mesenchymal stem cells (hMSC, Lonza, cat. PT-2501) were purchased from Lonza (Walkersville, MD).
Cell Culture. All cells were maintained in an incubator at 37 degrees C and 5% CO2 with 95% humidity. The PDC lines were cultured according to standard operating procedures established by the NCI PDMR (https://pdmr.cancer.gov). Briefly all PDCs were thawed and cultured in Matrigel-coated flasks prepared with a working solution of 1X Ham's F-12 nutrient mix, without supplementation (Invitrogen, Waltham, MA, cat. 11765054), 100 U/mL penicillin-streptomycin (Invitrogen, cat. 15140122), and 2.5% Matrigel (Corning Inc., Corning, NY, cat. 354248) for the first three passages. […]
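Also: spheroids also contain HUVEC and human MSCs and agents combined with iadademstat; spheroids exposed to agents for 7 days before readout.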

## Cn1ncnc1C1c2n[nH]c(=O)c3cc(F)cc(c23)NC1c1ccc(F)cc1 (centres undefined) + NC1CC1c1ccc(-c2cccc(O)c2)cc1
Curve of first compound, second compound 0.1 µM
  IC50: 37.8 nM
Curve of first compound, second compound 0.316 µM
  IC50: 52.3 nM
Curve of first compound, second compound 1 µM
  IC50: 46.1 nM
Curve of first compound, second compound 3.16 µM
  IC50: 59.6 nM
Curve of first compound, second compound 10 µM
  IC50: 59.8 nM
Second compound 0.1 µM, first compound 0.000316 µM
  viability, T/C: 82.2%
Second compound 0.1 µM, first compound 0.001 µM
  viability, T/C: 91%
Second compound 0.1 µM, first compound 0.00316 µM
  viability, T/C: 78.1%
Second compound 0.1 µM, first compound 0.01 µM
  viability, T/C: 76.7%
Second compound 0.1 µM, first compound 0.0316 µM
  viability, T/C: 50.8%
Second compound 0.1 µM, first compound 0.1 µM
  viability, T/C: 43.1%
Second compound 0.316 µM, first compound 0.000316 µM
  viability, T/C: 88.3%
Second compound 0.316 µM, first compound 0.001 µM
  viability, T/C: 65.7%
Second compound 0.316 µM, first compound 0.00316 µM
  viability, T/C: 69.3%
Second compound 0.316 µM, first compound 0.01 µM
  viability, T/C: 61.9%
Second compound 0.316 µM, first compound 0.0316 µM
  viability, T/C: 50%
Second compound 0.316 µM, first compound 0.1 µM
  viability, T/C: 47%
Second compound 1 µM, first compound 0.000316 µM
  viability, T/C: 70%
Second compound 1 µM, first compound 0.001 µM
  viability, T/C: 71.1%
Second compound 1 µM, first compound 0.00316 µM
  viability, T/C: 66.4%
Second compound 1 µM, first compound 0.01 µM
  viability, T/C: 62.3%
Second compound 1 µM, first compound 0.0316 µM
  viability, T/C: 53.8%
Second compound 1 µM, first compound 0.1 µM
  viability, T/C: 41.8%
Second compound 3.16 µM, first compound 0.000316 µM
  viability, T/C: 76.1%
Second compound 3.16 µM, first compound 0.001 µM
  viability, T/C: 73.1%
Second compound 3.16 µM, first compound 0.00316 µM
  viability, T/C: 63.9%
Second compound 3.16 µM, first compound 0.01 µM
  viability, T/C: 63.1%
Second compound 3.16 µM, first compound 0.0316 µM
  viability, T/C: 48.6%
Second compound 3.16 µM, first compound 0.1 µM
  viability, T/C: 49.2%
Second compound 10 µM, first compound 0.000316 µM
  viability, T/C: 64.1%
Second compound 10 µM, first compound 0.001 µM
  viability, T/C: 68%
Second compound 10 µM, first compound 0.00316 µM
  viability, T/C: 64%
Second compound 10 µM, first compound 0.01 µM
  viability, T/C: 60.4%
Second compound 10 µM, first compound 0.0316 µM
  viability, T/C: 47%
Second compound 10 µM, first compound 0.1 µM
  viability, T/C: 50%

## Cn1ncnc1C1c2n[nH]c(=O)c3cc(F)cc(c23)NC1c1ccc(F)cc1 (centres undefined)
Compound 0.000316 µM
  viability, T/C: 99.3% and 106%
Compound 0.001 µM
  viability, T/C: 102% and 99.5%
Compound 0.00316 µM
  viability, T/C: 99.7% and 90.2%
Compound 0.01 µM
  viability, T/C: 92.3% and 94.8%
Compound 0.0316 µM
  viability, T/C: 82.6% and 76%
Compound 0.1 µM
  viability, T/C: 68.6% and 58.2%
Curve of compound
  IC50: > 100 nM

## COc1cc(C2c3cc4c(cc3C(OC3OC5COC(C)OC5C(O)C3O)C3COC(=O)C23)OCO4)cc(OC)c1O (centres undefined)
Compound 0.00949 µM
  viability, T/C: 97.2% and 106%
Compound 0.03 µM
  viability, T/C: 84.8% and 76%
Compound 0.0949 µM
  viability, T/C: 34.7% and 35.1%
Compound 0.3 µM
  viability, T/C: 20.9% and 20.7%
Compound 0.949 µM
  viability, T/C: 19.2% and 17.7%
Compound 3 µM
  viability, T/C: 8.35% and 8.98%
Curve of compound
  IC50: 67.5 nM and 63.9 nM
